In ChEMBL document CHEMBL1127759, “Synthesis and in vitro cytotoxicity of 6-vinyluridine and related compounds” (Bioorg Med Chem Lett, 1994) one finds IC50 data, which are given here for 14 compounds.

As usually defined, the IC50 is the concentration that gives 50% inhibition.

The subject of this test is L1210. In words: In vitro growth inhibitory activity against mouse L1210 leukemia cells. It is filed as functional, cell-based.
Compound `CCOC(=O)/C(Br)=C\c1cc(O)nc(O)n1` showed an IC50 of 1 µM.

`C/C=C/c1cc(O)nc(O)n1`: the IC50 is more than 90 µM.

As to `C=Cc1nc(O)nc(O)c1Br`, half-maximal inhibition (IC50) required 11 µM.

In turn, `C/C=C\c1cc(O)nc(O)n1` came in with an IC50 of 46 µM.

For the compound `CCOC(=O)/C(Cl)=C\c1cc(O)nc(O)n1`, 3 µM corresponded to half-maximal inhibition (IC50).

On to `C=Cc1cc(O)nc(O)n1`, for which the IC50 turned out to be 3 µM.

In turn, `C=Cc1nc(O)nc(O)c1Cl` yielded an IC50 of 4.5 µM.

The compound `C=Cc1nc(O)nc(O)c1I` yielded an IC50 of 2 µM.

For the compound `CCOC(=O)/C=C/c1cc(O)nc(O)n1`, half-maximal inhibition (IC50) required 38 µM.

Take `COC(=O)/C(Br)=C\c1cc(=O)[nH]c(=O)n1C1O[C@H](CO)[C@@H](O)[C@H]1O` (some centres undefined): the IC50 is more than 25 µM.

Take `CCOC(=O)/C(C)=C/c1cc(=O)[nH]c(=O)n1C1O[C@H](CO)[C@@H](O)[C@H]1O` (some centres undefined): the IC50 is more than 30 µM.

As for `CCOC(=O)/C=C/c1cc(=O)[nH]c(=O)n1C1O[C@H](CO)[C@@H](O)[C@H]1O` (some centres undefined), the IC50 was more than 35 µM.

For the compound `C/C=C/c1cc(=O)[nH]c(=O)n1C1O[C@H](CO)[C@@H](O)[C@H]1O` (some centres undefined), the IC50 is more than 35 µM.

`C=Cc1cc(=O)[nH]c(=O)n1C1O[C@H](CO)[C@@H](O)[C@H]1O` (some centres undefined) came in with an IC50 of 12 µM.
